Key:
CFSC-2G cells = experiment: Scratch assay (cell migration), CFSC-2G cells; format: cell-based, rat; details: PDGF-BB 10 ng/ml, 17-20 h
Method: In addition the HSC cell lines CFSC-2G (moderately activated, kind gift of Dr. M. Rojkind, Washington DC, USA) were used.
(§1) Scratch assay: Cell migration was estimated by measuring the reduction of scratch area. Cells were seeded on a 24-well plate at a density of 60,000 cells/well. After reaching confluency cells were starved in serum-free medium for 24 h before making a scratch through the cell monolayer using a sterile pipet tip. After wounding cells were pre-treated by the αvβ3-integrin inhibitor at increasing concentrations (10^−10M-10^−6M) for 30 min and then treated by PDGF-BB at a concentration of 10 ng/ml in the absence of serum. The reduction of scratch area was measured at three different points per well using a special ocular with net-micrometer after […].
(§2) All experiments were performed in cell culture with the myofibroblasts-like cell line CFSC-2G (HSC cell line derived from cirrhotic rat liver) and primary rat HSC/MF. To investigate the effect of the αvβ3 integrin inhibitor on cell migration cells were seeded on 24 well plates and after reaching confluence starved in the absence of FCS for 24 h. Scratches were done and the cells treated with PDFG-BB at 10 ng/ml in the presence or absence of the αvβ3 inhibitor at 10^−6-−10^9 M. The rate of migration was measured after 17-20 h as a reduction of initial scratch width. […]

HSC/MF = experiment: BrdU incorporation (cell proliferation, de novo DNA synthesis); format: cell-based, rat
Method: Briefly, the liver was perfused in situ through the portal vein using a 16-18 G cannula with calcium-free HBSS (Gybco, UK) for S min followed by 0,1% Pronase E (Sigma) and subsequently 0.025% type IV collagenase (Sigma) in Dulbecco's modified Eagle's medium for 10-15 min each. The digested liver was excised, gently minced and incubated further with 0.04% pronase, 0,025% collagenase, 0,002% DNAse (Sigma) in Dulbecco's modified Eagle's medium, supplemented with 25 mM HEPES at 37° C. for 10-30 min with gentle agitation. After filtration through 100 μm nylon gauze, parenchymal cells were removed by low speed centrifugation. […] Viability of the isolated cells was assessed by Trypan Blue exclusion and was routinely greater then 95-98%. […] Contamination with Kupffer cells was assessed by the ability to engulf 3 μm latex beads and was below 3-5% after isolation, and almost undetectable after the 1st passage. […]
BrdU incorporation: To assess cell proliferation de novo DNA synthesis was determined as BrdU incorporation. […] During last […] of incubation cells were pulse-labeled with BrdU and its incorporation measured using an ELISA kit (Roche) and a micro-plate reader. […]

primary rat HSC/MF = experiment: Scratch assay (cell migration), primary rat HSC/MF; format: cell-based
Method: Briefly, the liver was perfused in situ through the portal vein using a 16-18 G cannula with calcium-free HBSS (Gybco, UK) for S min followed by 0,1% Pronase E (Sigma) and subsequently 0.025% type IV collagenase (Sigma) in Dulbecco's modified Eagle's medium for 10-15 min each. The digested liver was excised, gently minced and incubated further with 0.04% pronase, 0,025% collagenase, 0,002% DNAse (Sigma) in Dulbecco's modified Eagle's medium, supplemented with 25 mM HEPES at 37° C. for 10-30 min with gentle agitation. After filtration through 100 μm nylon gauze, parenchymal cells were removed by low speed centrifugation. The HSC fraction was collected from the gradient interface after enrichment by a two-step centrifugation through a 11 and 13% gradient of Nycodenz (Sigma) at 1500 g for 15 min without braking, and plated at a density 0.5×10^6/cm^2 in DMEM supplemented with 10% FCS, penicillin and streptomycin. Medium was changed after 24 h, and further every 48 hours. Viability of the isolated cells was assessed by Trypan Blue exclusion and was routinely greater then 95-98%. Purity of HSC isolates was confirmed by their typical morphological appearance: lipid-droplets in the cytoplasm showing greenish autofluorescence at 390 nm excitation and star-like shape. Contamination with Kupffer cells was assessed by the ability to engulf 3 μm latex beads and was below 3-5% after isolation, and almost undetectable after the 1st passage. For experiments cells were used between the 1st and 3rd passage, if not stated otherwise.
as §1, §2

CTGF = experiment: Real-Time PCR of CTGF expression in CFSC-2G cells; format: cell-based, rat; details: PDGF-BB 10 ng/ml 24 h, inhibitor 10^−6-10^−8 M, dose-dependent, maximum of inhibition at 10^−6 M
Method: (§3) Real-Time PCR Total RNA was isolated from the cell lysates using the RNApure commercial kit (PeqLab, Erlangen, Germany) according to the manufacturer's recommendations. Template cDNA was obtained by reverse transcription of […] of total RNA.
(§4) Relative transcript levels were quantified by real time RT-PCR using the LightCycler system (Roche), using 1,5 μl of template cDNA dilution in a total reaction volume of 15 μl that included Taq DNA-Polymerase, dNTP-mix, reaction buffer, and 3.0 mM MgCl2 provided by the “LightCycler FastStart DNA Master Hybridization Probes Kit” (Roche Molecular Biochemicals, Mannheim, Germany) according to the manufactor's instructions. For every measured transcript a 1:2 to 1:32 dilution series of one sample was used as standard. Data were analyzed with the LightCycler software using the “proportional second derivative maximum” option. The housekeeping genes beta-2 microglobulin or GAPDH were amplified in a parallel reaction for normalization of the results. […]
(§5) To investigate whether the […] integrin inhibitor had any effect on ECM expression in HSC/MF mRNA, expression of a spectrum of the major pro- and anti-fibrogenic molecules like procollagen α1(I) I, TGFβ1, TGFβ2, MMP-3, MMP-13, MMP-2, connective tissue growth factor (CTGF) and TIMP-1 was measured by Real-Time PCR. […]

[1] = tested on: procollagen α1(I), TGFβ1, TGFβ2, MMP-3, MMP-13, MMP-2, TIMP-1; experiment: Real-Time PCR of other pro- and anti-fibrogenic molecules in HSC/MF; format: cell-based, rat; details: PDGF-BB 10 ng/ml 24 h; data not shown
Method: as §3, §4, §5

[2] = tested on: secondary biliary liver fibrosis; experiment: Rat fibrosis model of bile duct occlusion (secondary biliary liver fibrosis); format: in vivo; details: after 5-6 weeks of bile duct occlusion, pilot experiments
Method: Animal experimentation: Male adult Wistar rats, average weight 206±19 g, underwent the following microsurgical procedure under an operating microscope (OPMI 6-S, Zeiss, Germany) (45-47): 1. midline abdominal incision following anesthesia with 100 mg/kg ketamine-hydrochloride (Ketanest®, Parke-Davis, Germany) and 10 mg/kg 5,6-dihydro-2-(2,6-xylidino)-4H-1,3-thiazine-hydrochloride (Rompun®, Bayer, Germany); 2. dissection of the common bile duct, insertion of a teflon catheter (Abbocath®-T 26 G, Venisystems, USA) and placement of a distal complete and a proximal incomplete ligature with 5-0 silk (Perma-hand®, Ethicon, Germany); 3. retrograde injection of sodium-amidotrizoate (Ethibloc®, Ethicon Germany) at a dose of […] body weight; 4. removal of the catheter, closure of the proximal ligature, scission of the bile duct between the ligatures and wound closure. After bile duct occlusion (BDO), animals received normal chow (Altromin®, Lage, Germany) and were allowed free access to water. […]
as §5

Compound | PDGF-BB induced cell migration into the scratch area (CFSC-2G cells; inhibitor 10^-9-10^-6 M, dose-dependent) | PDGF-BB induced cell migration at 10^−6 M (CFSC-2G cells; inhibitor 10^−6 M) | serum-stimulated cell proliferation (HSC/MF; 10% FCS, inhibitor 10^−6-10^−8 M) | PDGF-BB stimulated cell proliferation (HSC/MF; all cell types, PDGF-BB 10 ng/ml, inhibitor 10^−8-10^−6 M, 24 h) | inhibition of migration at reduced concentrations of FCS (primary rat HSC/MF; FCS 0,25%, data not shown) | cell migration stimulated by FCS (primary rat HSC/MF; HSC/MF, FCS-stimulated, inhibitor 10^−10-10^−6 M, 20 h) | PDGF-BB induced cell migration into the scratch area (primary rat HSC/MF; primary rat HSC/MF, PDGF-BB 10 ng/ml, inhibitor 10^-9-10^-6 M, 17-20 h, dose-dependent) | PDGF-BB induced cell migration at 10^−6 M (primary rat HSC/MF; primary rat HSC/MF, PDGF-BB 10 ng/ml, inhibitor 10^−6 M, 17-20 h) | CTGF expression (CTGF) | transcripts levels of other ECM molecules [1] | reduction of total liver collagen [2]
CNc1cccc(CCOc2ccc3c(C(CC(=O)O)c4ccc5nsnc5c4)c[nH]c3c2)n1 (centres unmarked) [EMD 409915, 3-Benzo[1,2,5]thiadiazol-5-yl-3-{6-[2-(6-methylamino-pyridin-2-yl)-ethoxy]-1H-indol-3-yl}-propionic acid] | strongly inhibited | Complete abrogation | absence of effect | did not have any effect | did not show any significant inhibition | no effect | strongly inhibited | Complete abrogation | downregulated | no change | 
O=C(O)CC(NC(=O)C(COCc1ccccc1)NC(=O)CCCCNc1ccccn1)c1cc(Cl)cc(Cl)c1 (centres unmarked) [EMD 409849, 3-{3-Benzyloxy-2-[5-(pyridin-2-ylamino)-pentanoylamino]-propanoylamino}-3-(3,5-dichloro-phenyl)-propionic acid] |  |  |  |  |  |  |  |  |  |  | 50-70%

Source: patent publication US20070117849A1, “Alfavbeta3 and alfavbet6 integrin antagonists as antifibrotic agents” (priority 2003, published 2007)
